Results on five compounds are retold here after patent publication US6107292A, “Indenoindoles and benzocarbazoles as estrogenic agents” (American Home Products Corporation, priority 2000, dated 2000).

One test deals with T1, human estrogen receptor (Homo sapiens, UniProt P03372).
T1 construct: expressed in transfected cells; host or cells: Chinese Hamster Ovary (CHO) cells, stably transfected
Put plainly: 2×VIT ERE Infection Assay (luciferase). It counts as cell-based. Particulars: CHO, 24 h; for Emax at 1 µM: read-out: Infection Luciferase Activity, 1 uM; for activity at 1 µM: read-out: Infection Luciferase Activity, 1 uM + 17β estradiol. As to the method: Chinese Hamster Ovary cells (CHO) which had been stably transfected with the human estrogen receptor were maintained in DMEM+10% fetal bovine serum (FBS). 48h prior to treatment the growth medium was replaced with DMEM lacking phenol red+10% dextran coated charcoal stripped FBS (treatment medium). Cells were plated at a density of 5000 cells/well in 96-well plates containing 200 μL of medium/well.
Reporter DNA (Promega plasmid pGL2 containing two tandem copies of the vitellogenin ERE in front of the minimal thymidine kinase promoter driving the luciferase gene) was combined with the B-galactosidase expression plasmid pCH 110 (Pharmacia) and carrier DNA (pTZ18U) in the following ratio:
20 uG of DNA1 mL of transfection solution
The DNA (20uG) was dissolved in 500 uL of 250 mM sterile CaCl2 and added dropwise to 500 uL of 2×HeBS (0.28 M NaCl, 50 mM HEPES, 1.5 mM Na2 HPO4, pH 7.05) and incubated at room temperature for 20 minutes. 20 uL of this mixture was added to each well of cells and remained on the cells for 16 h. […] Each treatment condition was performed on 8 wells (n=8) which were incubated for 24 h prior to the luciferase assay.
After 24 h exposure to compounds, the media was removed and each well washed 2× with 125 uL of PBS lacking Mg^++ and Ca^++. After removing the PBS, 25 uL of Promega lysis buffer was added to each well and allowed to stand at room temperature for 15 min, followed by 15 min at -80° C. and 15 min at 37° C. 20 uL of lysate was transferred to an opaque 96 well plate for luciferase activity evaluation and the remaining lysate (5 uL) was used for the B-galactosidase activity evaluation (normalize transfection). The luciferan substrate (Promega) was added in 100 uL aliquots to each well automatically by the luminometer and the light produced (relative light units) was read 10 seconds after addition.
To the remaining 5 uL of lysate 45 uL of PBS was added. Then 50 uL of Promega B-galactosidase 2× assay buffer was added, mixed well and incubated at 37° C. for 1 hour. A plate containing a standard curve (0.1 to 1.5 milliunits in triplicate) was set up for each experimental run. The plates were analyzed on a Molecular Devices spectrophotometric plate reader at 410 nm. The optical densities for the unknown were converted to milliunits of activity by mathematical extrapolation from the standard curve.
The luciferase data was generated as relative light units (RLUs) accumulated during a 10 second measurement and automatically transferred to a JMP (SAS Inc) file where background RLUs were subtracted. The B-galactosidase values were automatically imported into the file and these values were divided into the RLUs to normalize the data. The mean and standard deviations were determined from a n=8 for each treatment.

The target of another test is T2, estrogen receptor (Homo sapiens, UniProt P03372).
T2 construct: made in house; host or cells: CHO cells overexpressing the receptor; 100,000 g cytosol
T2 sequence (P03372 1-595): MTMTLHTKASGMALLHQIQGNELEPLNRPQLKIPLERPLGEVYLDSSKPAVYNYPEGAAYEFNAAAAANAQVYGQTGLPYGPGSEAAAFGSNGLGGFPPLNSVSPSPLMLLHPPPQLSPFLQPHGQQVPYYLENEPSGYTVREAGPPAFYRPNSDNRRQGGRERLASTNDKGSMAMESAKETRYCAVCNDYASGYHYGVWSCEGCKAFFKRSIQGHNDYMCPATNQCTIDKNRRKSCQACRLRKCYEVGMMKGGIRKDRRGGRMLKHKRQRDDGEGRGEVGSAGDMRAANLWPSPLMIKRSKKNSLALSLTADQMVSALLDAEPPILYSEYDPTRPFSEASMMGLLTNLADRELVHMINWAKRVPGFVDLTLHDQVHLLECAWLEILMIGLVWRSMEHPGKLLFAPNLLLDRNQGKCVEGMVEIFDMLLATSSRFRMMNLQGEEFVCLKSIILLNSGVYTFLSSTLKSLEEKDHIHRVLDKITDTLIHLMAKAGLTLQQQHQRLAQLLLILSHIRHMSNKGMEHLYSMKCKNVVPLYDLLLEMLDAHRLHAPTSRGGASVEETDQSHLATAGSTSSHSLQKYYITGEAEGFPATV
Briefly: In vitro Estrogen Receptor Binding Assay. The following applies: comparison / general statement in words. On the procedure: CHO cells overexpressing the estrogen receptor were grown in 150 mm^2 dishes in DMEM+10% dextran coated charcoal, stripped fetal bovine serum. The plates were washed twice with PBS and once with 10 mM Tris-HCl, pH 7.4, 1 mM EDTA. Cells were harvested by scraping the surface and then the cell suspension was placed on ice. Cells were disrupted with a hand-held motorized tissue grinder using two, 10-second bursts. The crude preparation was centrifuged at 12,000 g for 20 minutes followed by a 60 minute spin at 100,000 g to produce a ribosome free cytosol. The cytosol was then frozen and stored at -80° C. Protein concentration of the cytosol was estimated using the BCA assay with reference standard protein.
The competition assay was performed in a 96-well plate (polystyrene*) which binds <2.0% of the total input [^3 H]-17β-estradiol and each data point was gathered in triplicate. 100 uG/100 uL of the receptor preparation was aliquoted per well. A saturating dose of 2.5 nM [^3 H] […] Samples were counted to 2% or 10 minutes, whichever occurs first. […] Also, wells containing radioactivity but no cytosol were processed with charcoal to estimate unremovable DPM of [^3 H] […]
Counts per minute (CPM) of radioactivity were automatically converted to disintegrated per minute (DPM) by the Beckman LS 7500 Scintillation Counter using a set of quenched standards to generate a H# for each sample. […]

In test [1] the test system is bone. Particulars: ovariectomized rat; cited from earlier work.
For test [2], the system named is uterus. The following applies: ovariectomized rat; versus Tamoxifen; cited from earlier work.
For test [3], the system named is uterus. The following applies: in vivo; cited from earlier work.
Test [4] relates to bone. The following applies: humans; cited from earlier work.

As to `COc1ccc2c(c1)Cc1c-2n(Cc2ccc(OCCN3CCCCC3)cc2)c2ccc(O)cc12` [Example 4, 2-Methoxy-5-[4-(2-piperidin-1-yl-ethoxy)-benzyl]-5,10-dihydro-indeno[1,2-b]lindol-8ol], on human estrogen receptor, the Emax at 1 µM was -2% and the activity at 1 µM stood at 83%.

For the compound `COc1ccc2c(c1)CCc1c-2n(Cc2ccc(OCCN3CCCCC3)cc2)c2ccc(O)cc12` [Example 13, 3-Methoxy-11-[4-(2-piperidin-1-yl-ethoxy)-benzyl]-5,11-dihydro-6H-benzof[a]carbazol-8-ol], at human estrogen receptor, the Emax at 1 µM was -7% and the activity at 1 µM worked out at 1%. On estrogen receptor, the “binding to the ER receptor (in words)” value was “bind better to the ER receptor than the indenoindole #6”.

As to `COc1ccc2c(c1)CCc1c-2n(Cc2ccc(OCCN3CCCCCC3)cc2)c2ccc(O)cc12` [Example 14, 11-[4-(2-Azepan-1-yl-ethoxy)-benzyl]-3-methoxy-5,11-dihydro-6H-benzo[a]carbazol-8-ol], on human estrogen receptor, the Emax at 1 µM was determined as 1% and the activity at 1 µM is 8%. Also, the “binding to the ER receptor (in words)” value at estrogen receptor was “bind better to the ER receptor than the indenoindole #6”.

On to `O=C(c1ccc(OCCN2CCCCC2)cc1)c1c(-c2ccc(O)cc2)sc2cc(O)ccc12` [Raloxifene], for which the “ability to spare bone / bone mass” value in the test on bone [1] was “maintaining the ability to spare bone”. The uterine growth entry in the test on uterus [2] is “stimulate uterine growth in the ovariectornized rat to a lesser extent than Tamoxifen”.

Consider `CC/C(=C(\c1ccccc1)c1ccc(OCCN(C)C)cc1)c1ccccc1` [tamoxifen], for which, in the test with uterus [3], the “agonism in the uterus” value is listed as “partial agonist in the uterus”. Moreover, the “effect on the bone” value in the test on bone [4] was “estrogen agonist-like effect on the bone”.
